# How the values were obtained:
# CYP72A1 P450 = assay: Metabolism of pesticide substrates by the CYP72A1 P450 expressed with a reductase (yeast microsomes, [14C]-labeled substrates, HPLC); format: in vitro ADME, Zea mays (maize); conditions: expressed in the presence of a reductase; chromatographs FIGS. 8-11
# From the text: Both genes (CYP72A1 and CYP92A1), obtained as described in Example 1, were introduced into pYeDP60 vector for yeast expression. CYP72A1 was introduced as a full length gene with in-frame Met 1 and 8 as the start codons, while CYP92A1 was modified for the expression.
# Expression strategies include using both full length or truncated (Met 8 start site) CYP72A1 cDNA in yeast strains WAT11, WAT21 W (R) from Philippe Urban and Denis Pompon, with, optionally, yeast vector pYeDP60. Expression is ideally achieved with full length cDNA and WAT11. Expression may also require 36 hours rather than 24 hours of galactose induction prior to microsome preparation. Glucose (SGI) or galactose (SLI) media prior to induction will give expression.
# Metabolism experiments can be accomplished using microsomes prepared from yeast cells. The substrates can be incubated with [^14C]-labeled substrates and products analyzed by HPLC.
# CYP92A1 = assay: Induction of CYP92A1 expression by NA-treatment (Northern blot, maize seedlings); format: in vivo; conditions: FIG. 5
# Protocol: (§1) A maize cDNA library was constructed from napthalic anhydride (NA)-treated Pioneer 3343IR 3.5-day-old seedlings using lambda-ZAPII vector kit (Stratagene).
# (§2) Northern blot analysis was performed with total RNA isolated from control and […] and hybridized under high stringency conditions. To estimate the copy number, Southern blot analysis was performed using genomic DNA from 3343IR maize which was digested with SacI EcoRV, EcoRI, HindIII, and BamHI. The analysis was carried out under high stringency (65 degrees Celsius in 0.1×SSC and 0.1% SDS).
# (§3) Based on the results of the genomic Southern blot analysis, the hybridization patterns were consistent with those predicted from the restriction patterns of the corresponding cDNAs. […] Certain physico-chemical characteristics for the deduced proteins, antigenicity and secondary structure were calculated using Network Protein Sequence Analysis at IBCP, France.
# CYP72A1 = assay: Induction of CYP72A1 expression by NA-treatment (Northern blot, maize seedlings); format: in vivo; conditions: FIG. 5
# Protocol: as §1, §2, §3
# corn line GA209 = conditions: FIG. 12, thesis of Laura Boldt; cited from earlier work
# soybean P450 = conditions: cited from earlier work
# CYP73A1 = target: T1, CYP73A1 (Helianthus tuberosus, UniProt Q04468); conditions: cited from earlier work
# T1 sequence (Q04468 1-505): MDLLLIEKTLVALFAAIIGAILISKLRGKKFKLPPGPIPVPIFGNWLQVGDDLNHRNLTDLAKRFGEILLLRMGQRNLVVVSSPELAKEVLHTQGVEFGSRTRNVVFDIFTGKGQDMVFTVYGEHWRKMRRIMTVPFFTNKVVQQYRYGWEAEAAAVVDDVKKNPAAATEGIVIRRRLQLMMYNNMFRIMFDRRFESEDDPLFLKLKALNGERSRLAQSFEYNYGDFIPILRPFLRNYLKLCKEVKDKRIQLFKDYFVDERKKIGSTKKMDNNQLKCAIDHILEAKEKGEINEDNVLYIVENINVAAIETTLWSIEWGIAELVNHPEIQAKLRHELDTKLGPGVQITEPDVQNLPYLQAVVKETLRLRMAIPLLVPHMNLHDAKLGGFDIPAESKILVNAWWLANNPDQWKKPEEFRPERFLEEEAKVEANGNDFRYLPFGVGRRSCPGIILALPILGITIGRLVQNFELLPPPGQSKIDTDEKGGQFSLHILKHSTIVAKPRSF
# [1] = tested on: multiple pesticide metabolizing P450 in corn; conditions: FIG. 13, cited from earlier work
SMILES,metabolism of the substrate by the CYP72A1 P450 (CYP72A1 P450),sensitivity of corn line GA209 to the herbicide (corn line GA209),also measured
"O=C(O)COc1ccc(Cl)cc1Cl [2,4-D]",Unmetabolized,,
"O=C1OC(=O)c2cccc3cccc1c23 [NA, napthalic anhydride]",,,induction of CYP92A1 expression (CYP92A1): induced significantly less; induction of CYP72A1 expression (CYP72A1): highly induced
CCc1cccc(CC)c1N(COC)C(=O)CCl [alachlor],Unmetabolized,,
CC(C)N1C(=O)c2ccccc2NS1(=O)=O [bentazon],shown to metabolize,sensitive,
COc1cc(Cl)nc(NC(=O)NS(=O)(=O)c2ccccc2C(=O)O)n1 [chlorimuron],shown to metabolize,,
Cc1ccc(NC(=O)N(C)C)cc1Cl [chlortoluron],shown to metabolize,,metabolism by a soybean P450 (soybean P450): shown to metabolize; metabolism by CYP73A1 (CYP73A1): shown to metabolize
CCc1cnc(C2=NC(C)(C(C)C)C(=O)N2)c(C(=O)O)c1 (stereo not drawn) [imazethapyr],,sensitive,
CON(C)C(=O)Nc1ccc(Cl)c(Cl)c1 [linuron],Unmetabolized,,metabolism by a soybean P450 (soybean P450): shown to metabolize
CCOC(=O)CC(SP(=S)(OC)OC)C(=O)OCC (stereo not drawn) [malathion],shown to metabolize,,
COc1cc(OC)nc(NC(=O)NS(=O)(=O)c2ncccc2C(=O)N(C)C)n1 [nicosulfuron],,sensitive,
O=C(Nc1nc(OC(F)F)cc(OC(F)F)n1)NS(=O)(=O)c1ccccc1C(=O)O [primisulfuron],,sensitive,
CCOP(=S)(OCC)SCS(=O)(=O)C(C)(C)C [terbufos-sulfone],,,inhibition of in-vitro metabolism of bentazon ([1]; substrate bentazon): inhibited; inhibition of in-vitro metabolism of chlorimuron ([1]; substrate chlorimuron): inhibited; inhibition of in-vitro metabolism of imazethapyr ([1]; substrate imazethapyr): inhibited; inhibition of in-vitro metabolism of malathion ([1]; substrate malathion): inhibited; inhibition of in-vitro metabolism of nicosulfuron ([1]; substrate nicosulfuron): inhibited
